According to patent US20090018111A1, “Novel Antimicrobial Medicament” (priority 2004, published 2009):
Read-outs that look alike come from different tables or passages of the source.

Tests used:
P. vurgalis OX-19 = assay: Sensitivity test (agar dilution); format: cell-based, Proteus vulgaris; details: Proteus vulgaris
In short: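 Agar dilution on Mueller Hinton agar per the Japan Chemotherapeutic Society method, with two-fold serial dilutions of single drugs or combinations dissolved in water. Overnight 37° C cultures were suspended in BSG at ~10^6 CFU/ml and ~5 μl spotted.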

S. marcescens 2054522 = assay: Sensitivity test (agar dilution), clinical isolate; format: cell-based, Serratia marcescens
Method: (§1) In addition, the antibacterial activities were tested against strains which are comparatively less sensitive to β-lactam compounds, namely clinically isolated 13 strains of Acinetobacter calcoaceticus and Acinetobacter lwoffi, clinically isolated 11 strains of Serratia marcescens, clinically isolated 12 strains of Burkholderia cepacia, and clinically isolated 15 strains of Pseudomonas aeruginosa.
(§2) According to the standard method of Japan Chemotherapeutic Society (Chemotherapy, vol. […], p 76-79 (1981)) the test was carried out using the agar dilution method. After dissolving test samples in distilled water, agar medium containing the test samples was prepared in such a manner that the final concentration became twice serial dilution by pouring serially diluted combination drug solution or a single drug solution into agar medium. As agar medium was used Mueller Hinton Agar medium (MHA). Then, each strain was cultivated over night at 37° C. in an incubator and suspended in buffered saline solution with gelatin (BSG) in the concentration of about 10^6 CFU/ml. The suspension (about 5 μl) containing test strains was inoculated to the medium containing the test samples by Micro Planter.
(§3) Each drug was weighed, and dissolved in distilled water to give a test sample. When the drugs are used in combination, two kinds of solution containing each drug were mixed so as to be various ratio of concentration to give a mixed solution. When the sample is subjected to sensitivity test, this mixed solution was diluted by twice serial dilution method.
(§4) Furthermore, when the drug is solely used, each test sample was used as it is, and diluted by twice serial dilution method from the maximum concentration to the minimum concentration.

S. marcescens 1944950 = assay: Sensitivity test (agar dilution), clinical isolate; format: cell-based, Serratia marcescens
Method: as §1, §2, §3, §4

S. marcescens 14991 = assay: Sensitivity test (agar dilution), clinical isolate; format: cell-based, Serratia marcescens
Method: as §1, §2, §3, §4

S. marcescens 14981 = assay: Sensitivity test (agar dilution), clinical isolate; format: cell-based, Serratia marcescens
Method: as §1, §2, §3, §4

S. marcescens 14425 = assay: Sensitivity test (agar dilution), clinical isolate; format: cell-based, Serratia marcescens
Method: as §1, §2, §3, §4

S. marcescens 7138 = assay: Sensitivity test (agar dilution), clinical isolate; format: cell-based, Serratia marcescens
Method: as §1, §2, §3, §4

S. marcescens 2012884 = assay: Sensitivity test (agar dilution), clinical isolate; format: cell-based, Serratia marcescens
Method: as §1, §2, §3, §4

S. marcescens 14424 = assay: Sensitivity test (agar dilution), clinical isolate; format: cell-based, Serratia marcescens
Method: as §1, §2, §3, §4

S. marcescens 7155 = assay: Sensitivity test (agar dilution), clinical isolate; format: cell-based, Serratia marcescens
Method: as §1, §2, §3, §4

S. marcescens 14689 = assay: Sensitivity test (agar dilution), clinical isolate; format: cell-based, Serratia marcescens
Method: as §1, §2, §3, §4

S. marcescens 1928513 = assay: Sensitivity test (agar dilution), clinical isolate; format: cell-based, Serratia marcescens
Method: as §1, §2, §3, §4

## C[C@@H](O)[C@H]1C(=O)N2C(C(=O)O)=C(S[C@@H]3CN[C@H](C(=O)N(C)C)C3)[C@H](C)[C@H]12 [MEPM, meropenem]
P. vurgalis OX-19; OX19, Concomitant (MEPM:SM = 1:1), read-out: MIC
  MIC: ≤ 0.016 µg/mL
P. vurgalis OX-19; OX19, Concomitant (MEPM:SM = 1:2), read-out: MIC
  MIC: ≤ 0.016 µg/mL
P. vurgalis OX-19; OX19, Concomitant (MEPM:SM = 1:4), read-out: MIC
  MIC: ≤ 0.016 µg/mL
P. vurgalis OX-19; OX19, Concomitant drug (MEPM:SM = 2:1), read-out: MIC
  MIC: 0.031 µg/mL
P. vurgalis OX-19; OX19, alone, read-out: MIC
  MIC: 0.063 µg/mL
S. marcescens 2054522; Serratia marcescens, 2054522, Concomitant (ME:SM = 1:1)
  MIC: 1 µg/mL
S. marcescens 2054522; Serratia marcescens, 2054522, Concomitant (ME:SM = 1:2)
  MIC: 0.5 µg/mL
S. marcescens 2054522; Serratia marcescens, 2054522, Concomitant (ME:SM = 1:4)
  MIC: 0.5 µg/mL
S. marcescens 2054522; Serratia marcescens, 2054522, Concomitant (ME:SM = 2:1)
  MIC: 1 µg/mL
S. marcescens 2054522; Serratia marcescens, 2054522, alone
  MIC: 1 µg/mL
S. marcescens 1944950; Serratia marcescens, 1944950, Concomitant (ME:SM = 1:1)
  MIC: 8 µg/mL
S. marcescens 1944950; Serratia marcescens, 1944950, Concomitant (ME:SM = 1:2)
  MIC: 4 µg/mL
S. marcescens 1944950; Serratia marcescens, 1944950, Concomitant (ME:SM = 1:4)
  MIC: 4 µg/mL
S. marcescens 1944950; Serratia marcescens, 1944950, Concomitant (ME:SM = 2:1)
  MIC: 8 µg/mL
S. marcescens 1944950; Serratia marcescens, 1944950, alone
  MIC: 8 µg/mL
S. marcescens 14991; Serratia marcescens, 14991, Concomitant (ME:SM = 1:1)
  MIC: 2 µg/mL
S. marcescens 14991; Serratia marcescens, 14991, Concomitant (ME:SM = 1:2)
  MIC: 1 µg/mL
S. marcescens 14991; Serratia marcescens, 14991, Concomitant (ME:SM = 1:4)
  MIC: 1 µg/mL
S. marcescens 14991; Serratia marcescens, 14991, Concomitant (ME:SM = 2:1)
  MIC: 1 µg/mL
S. marcescens 14991; Serratia marcescens, 14991, alone
  MIC: 1 µg/mL
S. marcescens 14981; Serratia marcescens, 14981, Concomitant (ME:SM = 1:1)
  MIC: 1 µg/mL
S. marcescens 14981; Serratia marcescens, 14981, Concomitant (ME:SM = 1:2)
  MIC: 0.5 µg/mL
S. marcescens 14981; Serratia marcescens, 14981, Concomitant (ME:SM = 1:4)
  MIC: 0.5 µg/mL
S. marcescens 14981; Serratia marcescens, 14981, Concomitant (ME:SM = 2:1)
  MIC: 1 µg/mL
S. marcescens 14981; Serratia marcescens, 14981, alone
  MIC: 1 µg/mL
S. marcescens 14425; Serratia marcescens, 14425, Concomitant (ME:SM = 1:1)
  MIC: 0.031 µg/mL
S. marcescens 14425; Serratia marcescens, 14425, Concomitant (ME:SM = 1:2)
  MIC: 0.031 µg/mL
S. marcescens 14425; Serratia marcescens, 14425, Concomitant (ME:SM = 1:4)
  MIC: 0.031 µg/mL
S. marcescens 14425; Serratia marcescens, 14425, Concomitant (ME:SM = 2:1)
  MIC: 0.031 µg/mL
S. marcescens 14425; Serratia marcescens, 14425, alone
  MIC: 0.031 µg/mL
S. marcescens 7138; Serratia marcescens, 7138, Concomitant (ME:SM = 1:1)
  MIC: 2 µg/mL
S. marcescens 7138; Serratia marcescens, 7138, Concomitant (ME:SM = 1:2)
  MIC: 1 µg/mL
S. marcescens 7138; Serratia marcescens, 7138, Concomitant (ME:SM = 1:4)
  MIC: 0.5 µg/mL
S. marcescens 7138; Serratia marcescens, 7138, Concomitant (ME:SM = 2:1)
  MIC: 2 µg/mL
S. marcescens 7138; Serratia marcescens, 7138, alone
  MIC: 2 µg/mL
S. marcescens 2012884; Serratia marcescens, 2012884, Concomitant (ME:SM = 1:1)
  MIC: 2 µg/mL
S. marcescens 2012884; Serratia marcescens, 2012884, Concomitant (ME:SM = 1:2)
  MIC: 2 µg/mL
S. marcescens 2012884; Serratia marcescens, 2012884, Concomitant (ME:SM = 1:4)
  MIC: 1 µg/mL
S. marcescens 2012884; Serratia marcescens, 2012884, Concomitant (ME:SM = 2:1)
  MIC: 4 µg/mL
S. marcescens 2012884; Serratia marcescens, 2012884, alone
  MIC: 4 µg/mL
S. marcescens 14424; Serratia marcescens, 14424, Concomitant (ME:SM = 1:1)
  MIC: 8 µg/mL
S. marcescens 14424; Serratia marcescens, 14424, Concomitant (ME:SM = 1:2)
  MIC: 2 µg/mL
S. marcescens 14424; Serratia marcescens, 14424, Concomitant (ME:SM = 1:4)
  MIC: 2 µg/mL
S. marcescens 14424; Serratia marcescens, 14424, Concomitant (ME:SM = 2:1)
  MIC: 4 µg/mL
S. marcescens 14424; Serratia marcescens, 14424, alone
  MIC: 4 µg/mL
S. marcescens 7155; Serratia marcescens, 7155, Concomitant (ME:SM = 1:1)
  MIC: 2 µg/mL
S. marcescens 7155; Serratia marcescens, 7155, Concomitant (ME:SM = 1:2)
  MIC: 1 µg/mL
S. marcescens 7155; Serratia marcescens, 7155, Concomitant (ME:SM = 1:4)
  MIC: 0.5 µg/mL
S. marcescens 7155; Serratia marcescens, 7155, Concomitant (ME:SM = 2:1)
  MIC: 2 µg/mL
S. marcescens 7155; Serratia marcescens, 7155, alone
  MIC: 2 µg/mL
S. marcescens 14689; Serratia marcescens, 14689, Concomitant (ME:SM = 1:1)
  MIC: 2 µg/mL
S. marcescens 14689; Serratia marcescens, 14689, Concomitant (ME:SM = 1:2)
  MIC: 2 µg/mL
S. marcescens 14689; Serratia marcescens, 14689, Concomitant (ME:SM = 1:4)
  MIC: 2 µg/mL
S. marcescens 14689; Serratia marcescens, 14689, Concomitant (ME:SM = 2:1)
  MIC: 4 µg/mL
S. marcescens 14689; Serratia marcescens, 14689, alone
  MIC: 4 µg/mL
S. marcescens 1928513; Serratia marcescens, 1928513, Concomitant (ME:SM = 1:1)
  MIC: 1 µg/mL
S. marcescens 1928513; Serratia marcescens, 1928513, Concomitant (ME:SM = 1:2)
  MIC: 0.5 µg/mL
S. marcescens 1928513; Serratia marcescens, 1928513, Concomitant (ME:SM = 1:4)
  MIC: 0.5 µg/mL
S. marcescens 1928513; Serratia marcescens, 1928513, Concomitant (ME:SM = 2:1)
  MIC: 1 µg/mL
S. marcescens 1928513; Serratia marcescens, 1928513, alone
  MIC: 1 µg/mL

## C[C@H]1[C@H](NC(=O)/C(=N\OC(C)(C)C(=O)O)c2csc(N)n2)C(=O)N1S(=O)(=O)O [AZT, aztreonam]
P. vurgalis OX-19; OX19, Concomitant (AZT:SM = 1:1), P. vurgalis OX-19, read-out: MIC concomitant
  MIC: 0.004 µg/mL
P. vurgalis OX-19; OX19, drug alone, P. vurgalis OX-19, read-out: MIC alone
  MIC: 0.004 µg/mL
